Experimental data as given in article PMC3908673 (Bioorganic & medicinal chemistry, 2013).
Read-outs that look alike come from different tables or passages of the source.

Tests used:
[1] = biological target: T1, β2-AR (Homo sapiens, UniProt P07550); conditions: marker [3H]-(R,R′)-2
[2] = biological target: T1, β2-AR; assay type: binding
[3] = test system: 1321N1 astrocytoma cells; conditions: read-out: IC50, proliferation of 1321N1 astrocytoma cells; ref [5]; cited from earlier work
[4] = biological target: β2-AR relative to the β1-AR; conditions: β2-AR subtype selectivity; ref [3]; cited from earlier work
[5] = test system: isolated rat ventricular myocytes; conditions: cited from earlier work
[6] = test system: Gs proteins; conditions: ref [2]; cited from earlier work
[7] = test system: 1321N1 astrocytoma cells; experiment: inhibition of proliferation of 1321N1 astrocytoma cells; assay type: cell-based; conditions: Homo sapiens, 1321-N1, read-out: IC50, proliferation of 1321N1 astrocytoma cells
[8] = test system: isolated rat ventricular myocytes; experiment: cardiomyocyte contractility model; assay type: cell-based; conditions: initial studies, unpublished data

T1 sequence (P07550 whole entry): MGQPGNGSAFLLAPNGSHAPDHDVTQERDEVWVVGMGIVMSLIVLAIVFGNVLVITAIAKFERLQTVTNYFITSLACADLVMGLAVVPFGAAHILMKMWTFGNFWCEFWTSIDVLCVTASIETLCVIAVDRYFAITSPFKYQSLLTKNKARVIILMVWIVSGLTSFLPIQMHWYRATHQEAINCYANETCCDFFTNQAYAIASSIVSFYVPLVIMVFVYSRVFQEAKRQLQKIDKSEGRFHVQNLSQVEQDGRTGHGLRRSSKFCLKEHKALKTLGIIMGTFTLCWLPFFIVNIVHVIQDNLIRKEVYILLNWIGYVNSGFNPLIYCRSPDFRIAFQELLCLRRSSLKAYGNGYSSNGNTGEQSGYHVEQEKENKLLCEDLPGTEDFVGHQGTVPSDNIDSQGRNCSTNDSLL

SMILES: CCC[C@@H](Cc1ccc(OC)cc1)NC[C@H](O)c1cc(O)cc(O)c1 [(R,S′)-66, (R,S′)-5-(1-Hydroxy-2-((1-(4-methoxyphenyl)pentan-2-yl)amino)ethyl)benzene-1,3-diol]
- HS (Hill coefficient), displacement of [3H]-(R,R′)-2 [1]: 0.89 ± 0.14

SMILES: COc1ccc(C[C@@H](C)NC[C@H](O)c2cc(O)cc(O)c2)c2ccccc12 [(R,R′)-54]
- HS (Hill coefficient), displacement of [3H]-(R,R′)-2 [1]: 0.86 ± 0.1
- HS (Hill coefficient), displacement of [3H]-CGP-12177 ([2]; marker [3H]-CGP-12177): 1.07 ± 0.09

SMILES: COc1ccc(C[C@H](NC[C@H](O)c2cc(O)cc(O)c2)C(C)C)cc1 [(R,R′)-65, (R,R′)-5-(1-Hydroxy-2-((1-(4-methoxyphenyl)-3-methylbutan-2-yl)amino)ethyl)-benzene-1,3-diol]
- HS (Hill coefficient), displacement of [3H]-(R,R′)-2 [1]: 1.41 ± 0.47

SMILES: CC[C@@H](Cc1ccc(OC)cc1)NC[C@H](O)c1cc(O)cc(O)c1 [(R,S′)-64, (R,S′)-(+)-5-(1-Hydroxy-2-((1-(4-methoxyphenyl)butan-2-yl)amino)ethyl)benzene-1,3-diol]
- HS (Hill coefficient), displacement of [3H]-(R,R′)-2 [1]: 0.86 ± 0.05

SMILES: COc1ccc(C[C@@H](NC[C@H](O)c2cc(O)cc(O)c2)C(C)C)cc1 [(R,S′)-65, (R,S′)-(−)-5-(1-hydroxy-2-((1-(4-methoxyphenyl)-3-methylbutan-2-yl)amino)-ethyl)benzene-1,3-diol]
- HS (Hill coefficient), displacement of [3H]-(R,R′)-2 [1]: 1.45 ± 0.56

SMILES: COc1ccc(C[C@H](C)NC[C@@H](O)c2cc(O)cc(O)c2)cc1 [(S,S′)-2]
- HS (Hill coefficient), displacement of [3H]-(R,R′)-2 [1]: 1.68 ± 0.54
- HS (Hill coefficient), displacement of [3H]-CGP-12177 [2]: 2.30 ± 0.32

SMILES: COc1ccc(C[C@H](C)NC[C@H](O)c2cc(O)cc(O)c2)cc1 [(R,S′)-2]
- HS (Hill coefficient), displacement of [3H]-(R,R′)-2 [1]: 1.00 ± 0.05
- HS (Hill coefficient), displacement of [3H]-CGP-12177 [2]: 1.01 ± 0.14

SMILES: CCC[C@H](Cc1ccc(OC)cc1)NC[C@H](O)c1cc(O)cc(O)c1 [(R,R′)-66, (R,R′)-5-(1-Hydroxy-2-((1-(4-methoxyphenyl)pentan-2-yl)amino)ethyl)benzene-1,3-diol]
- HS (Hill coefficient), displacement of [3H]-(R,R′)-2 [1]: 1.38 ± 0.32
- HS (Hill coefficient), displacement of [3H]-CGP-12177 ([2]; marker [3H]-CGP-12177): 0.90 ± 0.03

SMILES: COc1ccc(CCNC[C@H](O)c2cc(O)cc(O)c2)cc1 [(R)-67, (R)-(−)-5-(1-Hydroxy-2-((4-methoxyphenethyl)amino)ethyl)benzene-1,3-diol]
- HS (Hill coefficient), displacement of [3H]-(R,R′)-2 [1]: 1.59 ± 0.50
- Ki lower than (S)-67 [1]: 10 fold
- HS (Hill coefficient), displacement of [3H]-CGP-12177 ([2]; marker [3H]-CGP-12177): 1.80 ± 0.70

SMILES: CC[C@@H](Cc1ccc(O)cc1)NC[C@H](O)c1cc(O)cc(O)c1 [(R,S′)-52]
- HS (Hill coefficient), displacement of [3H]-(R,R′)-2 [1]: 0.87 ± 0.2
- HS (Hill coefficient), displacement of [3H]-CGP-12177 ([2]; marker [3H]-CGP-12177): 2.07 ± 0.4

SMILES: COc1ccc(C[C@@H](C)NC[C@@H](O)c2cc(O)cc(O)c2)cc1 [(S,R′)-2]
- HS (Hill coefficient), displacement of [3H]-(R,R′)-2 [1]: 0.86 ± 0.13

SMILES: CC[C@H](Cc1ccc(O)cc1)NC[C@H](O)c1cc(O)cc(O)c1 [(R,R′)-52]
- IC50 [3]: 1.4 nM
- Kiβ1-AR/Kiβ2-AR [4]: 334
- HS (Hill coefficient), displacement of [3H]-(R,R′)-2 [1]: 0.93 ± 0.1
- stimulation of rat cardiomyocyte contractility ([5]; ref [3]): essentially inactive
- lower activity in the cardiomyocyte contractility model ([5]; relative to other tested compounds, ref [3]): > 100 fold
- HS (Hill coefficient), displacement of [3H]-CGP-12177 ([2]; marker [3H]-CGP-12177): 1.01 ± 0.01

SMILES: COc1ccc(C[C@@H](C)NC[C@H](O)c2cc(O)cc(O)c2)cc1 [(R,R′)-2, (R,R′)-4′-methoxyfenoterol]
- G protein coupling [6]: selectively signaled through Gs proteins
- HS (Hill coefficient), displacement of [3H]-(R,R′)-2 [1]: 0.80 ± 0.9
- HS (Hill coefficient), displacement of [3H]-CGP-12177 [2]: 0.98 ± 0.05

SMILES: CC[C@H](Cc1ccc(OC)cc1)NC[C@H](O)c1cc(O)cc(O)c1 [(R,R′)-64, (R,R′)-(−)-5-(1-Hydroxy-2-((1-(4-methoxyphenyl)butan-2-yl)amino)ethyl)benzene-1,3-diol]
- IC50 [7]: 1.5 nM
- HS (Hill coefficient), displacement of [3H]-(R,R′)-2 [1]: 0.82 ± 0.04
- decrease in binding affinity compared with (R,R′)-2 [1]: 10 fold
- HS (Hill coefficient), displacement of [3H]-CGP-12177 ([2]; marker [3H]-CGP-12177): 1.00 ± 0.11
- Ki lower than (R,R′)-52 ([2]; marker [3H]-CGP-12177): 3 fold
- Ki(R,S′)/Ki(R,R′) ([2]; marker [3H]-CGP-12177, difference between (R,S′)- and (R,R′)-isomers): 50 fold
- activity in the cardiomyocyte contractility model [8]: no activity

SMILES: COc1ccc(C[C@H](C)NC[C@H](O)c2cc(O)cc(O)c2)c2ccccc12 [(R,S′)-54]
- HS (Hill coefficient), displacement of [3H]-(R,R′)-2 [1]: 0.90 ± 0.2
- HS (Hill coefficient), displacement of [3H]-CGP-12177 ([2]; marker [3H]-CGP-12177): 1.06 ± 0.02

SMILES: C[C@H](Cc1ccc(O)cc1)NC[C@H](O)c1cc(O)cc(O)c1 [(R,R′)-1, (R,R′)-Fenoterol]
- G protein coupling [6]: selectively couples to Gs proteins
- HS (Hill coefficient), displacement of [3H]-(R,R′)-2 [1]: 0.76 ± 0.1
- increase in contractile response ([5]; isolated rat ventricular myocytes, ref [1],[2]): 300%

SMILES: COc1ccc(CCNC[C@@H](O)c2cc(O)cc(O)c2)cc1 [(S)-67, (S)-5-(1-Hydroxy-2-((4-methoxyphenethyl)amino)ethyl)benzene-1,3-diol]
- HS (Hill coefficient), displacement of [3H]-(R,R′)-2 [1]: 0.89 ± 0.03

SMILES: C[C@@H](Cc1ccc(O)cc1)NC[C@H](O)c1cc(O)cc(O)c1 [(R,S′)-1]
- HS (Hill coefficient), displacement of [3H]-(R,R′)-2 [1]: 0.97 ± 0.1
- HS (Hill coefficient), displacement of [3H]-CGP-12177 ([2]; marker [3H]-CGP-12177): 0.81 ± 0.1
